“And” between values parts separate entries of the source, which are not always exact repeats. Equal values may be shown once. “Also recorded” adds a separate entry of the source.
What was measured:
[1] = nM levels; cited from earlier work
[2] = test system: protein kinase C (PKC); conditions: about 10 nM; cited from earlier work
[3] = test system: neutrophils; assay: Phagocytosis of opsonized sheep red blood cells by neutrophils; format: cell-based, human; conditions: 100 nM or 1000 nM, pH 7.4, 37° C., 30 minutes
Method: Neutrophils were prepared as described in the general methodology and suspended at a concentration of 10×10^6 -15×10^6 cells/ml in Hepes Hanks buffer, pH 7.4, supplemented with 1 mg/ml BSA, 1 mg/ml glucose, 0.5 mM MgCl2 and 1.0 mM CaCl2 --2H2 O.
The sheep red blood cells (SRBCs) were prepared by washing the cells with 1× veronal-buffered saline (VBS), incubating the cells with a 1:500 dilution of rabbit anti-SRBC IgG antibody at 37° C. for 15 minutes, centrifuging the cells at 2000 rpm for 5 minutes at 4° C. and washing the cells twice with 1×VBS. SRBCs were resuspended at a final concentration of 10×10^8 cells/ml.
Each component was pipetted separately to the bottom of a 12×75 mm test tube to allow thorough mixing of the components.
To each 100 μl mixture was added 15 μl of opsonized SRBCs to start the phagocytosis reaction. The tubes were vortexed and placed in a 37° C. incubator for 30 minutes. After 30 minutes, the tubes were placed on ice to stop the reaction.
Non-phagocytosed SRBCs were lysed by adding 1.0 ml of 0.83% NH4 Cl to each tube, with shaking, and centrifuging the tubes quickly at 1500 rpm for 3 minutes. The supernatant was removed and the pellets were resuspended in 30 gl of PBS. The 30 μl solution was placed onto a polylysine-coated microscope slide and after 15 minutes the excess solution was removed from the slide. The cells on the slide were fixed with 1% glutaraldehyde for 5 minutes and then the excess glutaraldehyde was removed. The cells were stained with Giemsa Stain by immersing the slide in the stain for 25 minutes, rinsing the slide with water and allowing the slide to dry overnight.
The slides were examined with a light microscope at 100×power. SRBCs which were phagocytosed by neutrophils were visible as yellow cells within blue-stained neutrophils. The results for each reaction were expressed as a phagocytic index, representing the number of SRBCs phagocytosed per 100 neutrophils. […]

[4] = molecular target: T1, specific lipoxin receptors (Homo sapiens, UniProt P25090); assay: [3H]LXA4 ligand binding to human neutrophils
T1 sequence (P25090 1-351): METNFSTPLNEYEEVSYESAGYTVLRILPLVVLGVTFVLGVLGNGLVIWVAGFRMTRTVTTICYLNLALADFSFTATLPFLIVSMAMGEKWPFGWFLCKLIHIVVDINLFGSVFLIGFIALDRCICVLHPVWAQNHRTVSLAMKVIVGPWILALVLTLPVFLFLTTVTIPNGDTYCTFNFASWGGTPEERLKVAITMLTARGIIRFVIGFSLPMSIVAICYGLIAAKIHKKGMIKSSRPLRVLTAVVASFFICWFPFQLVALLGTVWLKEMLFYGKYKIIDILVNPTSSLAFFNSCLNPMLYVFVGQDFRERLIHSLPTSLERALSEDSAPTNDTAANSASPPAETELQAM
Method: (§1) Influx rates were calculated by fitting the data points to a single exponential equation (Eq. 1). Results have been taken from three experiments based upon duplicate determinations. […] Specific binding was taken as the difference between total and non-specific binding. […] Results are from three separate experiments, each performed in triplicate.

[5] = test system: lipoxin transport system; assay: Irreversible inhibition of [3H]LXA4 influx after pretreatment of neutrophils with sulfhydryl-reactive agents; format: cell-based, human
[6] = test system: Cl-/HCO3- exchanger; conditions: cited from earlier work
[7] = test system: sulfate carrier; conditions: cited from earlier work
[8] = test system: lipoxin transport system; assay: [3H]LXA4 influx into human neutrophils (unidirectional tracer flux); conditions: for final [3H]LXA4 uptake (combined data) / initial [3H]LXA4 influx rate (combined data): combined data: Control, 0.4 mM SITS, 1 mM probenecid, Na+-free medium, high K+ medium; for effect on [3H]LXA4 influx: probenecid 1 mM, SITS 0.4 mM
[9] = test system: retinoic acid-induced HL-60 cells; assay: [3H]LXA4 uptake into retinoic acid-induced HL-60 cells; format: cell-based, human; conditions: 0.5 mM DISA, 5 nM LXA4
Method: (§2) HL-60 Cells: HL-60 cells were seeded into RPMI medium supplemented with 100 U/ml penicillin, 100 μg/ml streptomycin, and 10% fetal calf serum (Hyclone, Logan, Utah) and grown at 37° C. in 250 ml flasks in a 5% CO2 /95% air atmosphere. Cells were induced to differentiate toward a neutrophil-like phenotype by exposure to 1 μM retinoic acid for 5 days.
(§3) Human red cells, lymphocytes, and platelets were isolated from peripheral blood as described under Methods. Undifferentiated HL-60 cells were grown in culture according to standard protocols. Differentiated HL-60 cells were obtained by exposing cells to 1 μM retinoic acid for 5 days in culture. After harvesting and isolation, all cells were kept in the standard medium for 1 hour at 37° C. prior to assay. […] Results represent the means±SEM of three-four separate experiments for each cell type.

[10] = test system: undifferentiated HL-60 cells; assay: [3H]LXA4 uptake into undifferentiated HL-60 cells; format: cell-based, human; conditions: 0.5 mM DISA, 5 nM LXA4
Method: as §2, §3

[11] = test system: unstimulated human lymphocytes; assay: [3H]LXA4 uptake into lymphocytes; format: cell-based; conditions: 0.5 mM DISA, 5 nM LXA4
Method: Lymphocvtes: The lymphocyte-rich interface layer was taken at the Ficoll-Hypaque gradient step of the neutrophil purification procedure. Platelets were removed by slow-speed centrifugation (see below) and contaminating monocytes and neutrophils by adherence to plastic Petri dishes for 1 hour at 37 ° C.
as §3

[12] = test system: human neutrophils; conditions: 500 µM
[13] = test system: human neutrophils; assay: [3H]LXA4 methyl ester influx into human neutrophils; format: cell-based
Method: Incubations were performed at 37° C. in capped, plastic tubes (Falcon Plastics, Oxnard, Calif.) under various experimental conditions (neutrophils 15-20×10^6 /ml). […] At stated intervals, duplicate aliquots of the cell suspensions were layered onto 0.5 ml of silicone oil (Versilube F-5, General Electric Corp., Waterford, N.Y.) contained in 1.5 ml plastic tubes and centrifuged for 1 min at 8,000 g in a microcentrifuge (Beckman Instruments, Fullerton, Calif.).
The aqueous and oil phases were aspirated and discarded. […] Influx is expressed here as fmol/10^6 cells/min whereas flux rates in all previous work from our laboratory (L.S.) have been reported in meq/liter of cell water.min.
as §1

[14] = test system: unstimulated human platelets; assay: [3H]LXA4 uptake into platelets; format: cell-based; conditions: 0.5 mM DISA, 5 nM LXA4
Method: Platelets: Platelets were purified to homogeneity from acid citrate dextrose-treated blood according to established protocols (Romano, M. and Serhan, C. N. (1992) Biochemistry 31:8269-8277).
as §3

[15] = test system: unstimulated human erythrocytes; assay: [3H]LXA4 uptake into erythrocytes; format: cell-based; conditions: 0.5 mM DISA, 5 nM LXA4
Method: Red Blood Cells (RBC): RBC were obtained directly from the heparinized blood of normal human donors. During repeated (four) washing steps, the uppermost portion of the cell pellets was aspirated and discarded to remove residual minor contamination of buffy coat cells.
as §3

[16] = test system: H+ +lactate- cotransporter; conditions: cited from earlier work

Question: Which results are given for `CCCCC[C@H](O)[C@H](O)/C=C/C=C/C=C\C=C\[C@@H](O)CCCC(=O)O` [LXB4, lipoxin B4]?
Answer: vasodilation [1]: elicit prompt vasodilation; effect on PKC activity [2]: enhance; effect on neutrophil phagocytosis, phagocytic index [3]: inhibit phagocytosis

Question: With `O=C(O)c1cc[c]([Hg+])cc1.[OH-]` [pHMB, p-hydroxymercuribenzoate] as the compound, how does the “effect on binding of lipoxin to specific receptors” value [4] read?
Answer: not inhibitable

Question: What about the “% Inhibition of Transport (irreversible)” value [5] of the same compound?
Answer: ~ 65% and 66 ± 4%

Question: What about the “effect on Cl-/HCO3- exchange” value [6] of the same compound?
Answer: resistant

Question: For `CC(=O)Nc1ccc(C=Cc2ccc(N=C=S)cc2S(=O)(=O)O)c(S(=O)(=O)O)c1` [SITS, 4-acetamido-4'-isothiocyanostilbene-2,2'-disulfonic acid], which “sensitivity of the sulfate carrier” value [7] is on record?
Answer: very sensitive

Question: And the “final [3H]LXA4 uptake (combined data)” value ([8]; 5 nM LXA4)?
Answer: 7.26±0.26 fmol/10^6 cells

Question: What about the “initial [3H]LXA4 influx rate (combined data)” value ([8]; 5 nM LXA4) of the same compound?
Answer: 0.57±0.09 fmol/10^6 cells/min

Question: And the “effect on [3H]LXA4 influx” value [8]?
Answer: no apparent impact; also recorded: not inhibited

Question: For `CCCN(CCC)S(=O)(=O)c1ccc(C(=O)O)cc1` [probenecid], which “sensitivity of the sulfate carrier” value [7] is on record?
Answer: very sensitive

Question: And the “final [3H]LXA4 uptake (combined data)” value ([8]; 5 nM LXA4)?
Answer: 7.26±0.26 fmol/10^6 cells

Question: What about the “initial [3H]LXA4 influx rate (combined data)” value ([8]; 5 nM LXA4) of the same compound?
Answer: 0.57±0.09 fmol/10^6 cells/min

Question: And the “effect on [3H]LXA4 influx” value [8]?
Answer: no apparent impact; also recorded: not inhibited

Question: For `O=C(O)c1cc(I)cc(I)c1O` [DISA, 3,5-diiodo-salicylic acid], which “[3H]LXA4 Uptake Rate in the presence of DISA” value (“[3H]LXA4 Uptake Rate” for short) [9] is on record?
Answer: 0.08 ± 0.02 fmol/10^6 cells/min

Question: And the “effect on binding of lipoxin to specific receptors” value [4]?
Answer: not inhibitable

Question: What about the “[3H]LXA4 Binding, non-specific, in presence of drug” value ([4]; 0.5 mM drug, + unlabeled LXA4 0.3 μM) of the same compound?
Answer: 0.41 ± 0.05 fmol/10^6 cells

Question: And the “[3H]LXA4 Binding, total, in presence of drug” value ([4]; 0.5 mM drug, no unlabeled LXA4)?
Answer: 1.23 ± 0.08 fmol/10^6 cells

Question: And the “[3H]LXA4 Uptake Rate” value [10]?
Answer: 0.12 ± 0.02 fmol/10^6 cells/min

Question: And the “[3H]LXA4 Uptake Rate” value [11]?
Answer: 0.0053 ± 0.0036 fmol/10^6 cells/min

Question: And the “efflux final value (relative cell content, combined data set)” value [12]?
Answer: 0.46±0.02

Question: And the “efflux rate coefficient (combined data set)” value [12]?
Answer: 0.098 ± 0.008 min⁻¹

Question: What about the “[3H]LXA4 ME Influx in presence of drug” value ([13]; 0.5 mM drug) of the same compound?
Answer: 481 ± 170 fmol/10^6 cells/min

Question: What about the “effect of drugs on [3H]LXA4 ME influx” value ([13]; DISA 0.5 mM, PCP 0.4 mM, mersalyl 0.5 mM) of the same compound?
Answer: completely resistant

Question: And the “inhibition of FMLP-enhanced [3H]LXA4 uptake” value ([8]; 100 nM FMLP + DISA)?
Answer: completely sensitive to inhibition

Question: And the “inhibition of PMA-induced enhancement of [3H]LXA4 influx” value ([8]; 100 nM PMA + DISA)?
Answer: competely sensitive to inhibition

Question: And the “[3H]LXA4 uptake by 1 min of incubation” value ([8]; 0.5 mM DISA)?
Answer: 2.9 fmol/10^6 cells

Question: And the “effect on transport system-mediated component of uptake” value ([8]; 0.5 mM DISA)?
Answer: completely blocks; also recorded: markedly sensitive; also recorded: blocked

Question: What about the “slope of straight-line fit of [3H]LXA4 uptake in presence of drug” value ([8]; 0.5 mM DISA, 5 nM LXA4, not distinguishable from zero) of the same compound?
Answer: 0.0046±0.0051 fmol/10^6 cells/min

Question: What about the “cell-associated [3H]LXA4, average of all data points” value ([8]; 0.5 mM DISA, 1-30 min) of the same compound?
Answer: 2.88 fmol/10^6 cells

Question: And the “inhibition of [3H]LXA4 influx” value ([8]; 0.5 mM drug)?
Answer: > 80%

Question: And the “effect on uptake of [3H]LXA4” value ([8]; each at 0.2-0.5 mM)?
Answer: inhibited the uptake

Question: What about the IC50 ([8]; read-out: K0.5, concentration at which 50% of lipoxin transport is inhibited, drug 0-500 μM, uptake at 10 and 20 min, Michaelis-Menten inhibition kinetics) of the same compound?
Answer: 12 ± 2 µM

Question: And the “[3H]LXA4 Uptake Rate” value [14]?
Answer: -0.0005 ± 0.0015 fmol/10^6 cells/min

Question: What about the “[3H]LXA4 Uptake Rate” value [15] of the same compound?
Answer: 0.0019 ± 0.0008 fmol/10^6 cells/min

Question: What does the source list for `CCN1C(=O)C=CC1=O` [NEM, N-ethylmaleimide]?
Answer: effect of SH-reactive compounds on [3H]LXA4 influx ([8]; 1 mM NEM, 0.4 mM iodoacetate): lacked efficacy; also recorded: do not inhibit; effect on H+ +lactate- cotransport / lactic acid fluxes [16]: completely blocked
